Measured values: patent US9968716B2, “Drug-eluting stent graft” (Ono Pharmaceutical Co., Ltd., priority 2013, dated 2018)
Marks after values point to notes of the source that are not given here.

What was measured:
[1] = system: normal human aortic smooth muscle cells (AoSMCs); experiment: Promotion of cAMP production in AoSMC culture; type: cell-based; details: Ao-SMCs, 72 hours of culture
Description: Cells (produceed by Lonza, purchased from Takara Bio Inc., product name: normal human aortic smooth muscle cells (AoSMCs), product code: CC-2571) were cultured in a medium (produced by Lonza, purchased from Takara Bio Inc., product name: smooth muscle cell medium kit-2 (5% FBS), SmGM™-2 Bullet Kit™, product code: CC-3182) for 72 hours. To the culture medium at the number of cells of 4.0×10^5 cells which was rendered to be serum free, Compound 1 dissolved in DMSO was added so as to be 100 nM or 1000 nM. As a control, the same amount of DMSO was added to the culture medium. After 72 hours of culture, the supernatant was recovered and cAMP in the culture medium was measured with the cAMP EIA kit Code. 581001.

NHDFs and HUVECs = experiment: Induction of internal regenerating factors in co-culture with NHDFs and HUVECs; type: cell-based, human

Compound: O=C(O)COc1cccc2c1CCC=C2CCO/N=C(\c1ccccc1)c1cccnc1 [Compound 1, (E)-[5-[2-[1-phenyl-1-(3-pyridyl)methylidenaminoxy]ethyl]-7,8-dihydronaphthalen-1-yloxy]acetic acid]
- cAMP in the culture medium, Average ([1]; 100 nM): 50.6* nM
- cAMP in the culture medium, Average ([1]; 1000 nM): 105.4* nM
- induction of internal regenerating factors (HGF, VEGF, EGF, IGF-1, SDF-1, G-CSF) (NHDFs and HUVECs): induce
